Experiments:
[1] = test system: T1, proteasome in HEK293T cell lysate; experiment: Proteasome activity in the HEK293T cell lysate, Suc-LLVY-AMC; assay type: biochemical, human
T1 construct: endogenous in cells; host or cells: HEK293T cell lysate
Procedure: To assess whether activators are able to stimulate the proteasome in the cellular environment, we conducted experiments using the HEK293T cell lysate. […] The experiment was carried out as it was described.[25] Briefly, HEK293T cells were lysed, and the lysate was treated with the modulators at a concentration of 1, 2.5, 5, 10, and 25 μM, only in the case of modulators with the TAT or 6R sequence attached were the concentrations 0.5, 1, 2.5, 5, and 10 μM. The proteasome activity was probed using Suc-LLVY-AMC substrate. One μM bortezomib was used as a negative control. All experiments were performed in at least three independent replicates. One-way ANOVA with Tukey’s post-hoc test was used to determine statistical significance.

[2] = test system: human 20S proteasome (α-synuclein substrate); experiment: α-Synuclein degradation by h20S (SDS-PAGE); assay type: biochemical; details: 10 μM modulator, 37 °C, 1.5 h; h20S alone = 100%
Procedure: The effectiveness of the compounds has also been examined by using proteins as substrates. By means of SDS-PAGE electrophoresis, we checked the extent to which model proteins were digested by the 20S proteasome alone and after its stimulation by 10 μM modulators. […] After incubation with the enzyme in the presence of each modulator, less than 40% of synuclein remained. […] The experiment was performed as it was described.[36] Briefly, α-synuclein (rPeptide, […], USA) and Tau-441 (Novus Biologicals, Centennial, CO, USA) were dissolved in 20 mM HEPES buffer (pH 7.4) and mixed with a human 20S proteasome. Samples were incubated at 37 °C for 1.5 h, after which the reaction was terminated by adding 4× Laemmli buffer. The levels of undigested proteins were evaluated by SDS-PAGE. The band intensities of proteins incubated with […] in the presence of a modulator were compared to those of proteins incubated with the enzyme alone, which were set as 100%. Three independent experiments were performed for each protein. The results are presented as the means ± SD. One-way ANOVA with Tukey's post-hoc test was used to determine statistical significance.

## C[C@@H](O)[C@H](NC(=O)[C@H](Cc1ccccc1)NC(=O)[C@H](Cc1ccc(O)cc1)NC(=O)CN(CCCCN)C(=O)[C@H](CCCNC(=N)N)NC(=O)[C@H](CCCNC(=N)N)NC(=O)[C@H](CCCNC(=N)N)NC(=O)[C@H](CCC(N)=O)NC(=O)[C@H](CCCNC(=N)N)NC(=O)[C@H](CCCNC(=N)N)NC(=O)[C@H](CCCCN)NC(=O)[C@H](CCCCN)NC(=O)[C@@H](N)CCCNC(=N)N)C(=O)NCC(=O)N[C@@H](CO)C(=O)N[C@@H](CCCCN)C(=O)N[C@@H](CC(=O)O)C(=O)N[C@@H](Cc1c[nH]c2ccccc12)C(=O)N[C@@H](CCCNC(=N)N)C(=O)N[C@@H](CO)C(=O)N[C@@H](Cc1ccc(O)cc1)C(=O)N[C@@H](Cc1ccc(O)cc1)C(=O)N[C@@H](CO)C(=O)O [1f]
[1]; 5 μM
  activation of the proteasome in HEK293T cell lysate: approximately 4 fold
[1]; compared with 1a
  efficacy in HEK293T cell lysate: higher efficacy than their parent compound 1a
[2]
  α-synuclein remaining after incubation with h20S: less than 40%

From article PMC12035797, “Peptidomimetics Activating the Proteasome: A New Perspective for Parkinson’s Treatment” (Journal of Medicinal Chemistry, 2025)
